Values quoted from earlier work in patent US12570633B2, “Preparation method for CDK4/6 inhibitor” (CHIA TAI TIANQING PHARMACEUTICAL GROUP CO., LTD., priority 2020, dated 2026).

Assays:
breast cancer = conditions: background statement referring to WO2016141881
CDK4/6 = conditions: background statement referring to WO2016141881; read-out: IC50 value against CDK4/6

- IC50 (CDK4/6): < 1 nM
Compound: CC(C)c1c2cc(-c3nc(Nc4ccc(N5CCNCC5)cn4)ncc3F)ccc2nn1C [compound of formula (I)]
- tumor inhibitory activity against breast cancer (breast cancer): good tumor inhibitory activity
